Experimental data as given in PMC2364081, “Antagonists of retinoic acid receptors (RARs) are potent growth inhibitors of prostate carcinoma cells” (British Journal of Cancer, 2001).
Like-named read-outs stand apart in the source and are kept apart here.

What was measured:
LNCaP cells = conditions: cited from earlier work
PC-3 cells = tested on: PC-3 cells; design: method as in Pienta et al, 1993; Heish and Wu, 1997; conditions: ref Pienta et al, 1993; Heish and Wu, 1997; cited from earlier work
LNCaP ITS+ cells = assay: Plate colony formation (clonal proliferation) assay, serum-free (ITS+)-grown LNCaP; assay type: cell-based, human; conditions: LNCaP, serum-free (ITS+), 14 days
Description: (§1) Prostate cancer is one of the most common cancers in European and American males and has a high mortality rate (Landis et al, 1998; Rosenthal, 1998). Early disease is managed conservatively in Europe although in selected patients surgery is curative. In advanced disease, androgen ablation can produce symptomatic improvement, but the tumour often re-emerges in an androgen- independent and incurable form. One proposed treatment for androgen-independent prostate carcinoma is differentiation ther- apy, in which agents such as all-trans-retinoic acid (ATRA), 9-cis- retinoic acid and 1, 25-dihydroxyvitamin D3 (D3 ) are used to induce growth arrest, differentiation and sometimes apoptosis of the tumour cells (Liang et al, 1999; de Vos et al, 1997; Skowronski et al, 1994; Hedlund et al, 1997). ATRA and synthetic analogues exert their biological effects by binding to two families of retinoid receptors, […]. These are ligand-dependent transcription factors of the steroid/thyroid hormone nuclear receptor superfamily (Chambon 1994; Boehm et al, 1995). Activated RARs bind to retinoic acid-responsive elements (RAREs) in the promoters of genes and thus regulate gene expression. They also antagonize the activity of the tran- scription factor AP1 and thereby down-regulate the expression of some AP1-activated genes (Nagpal et al, 1995). One approach to unravelling the contributions of RAR sub-types to these actions has been the development of synthetic retinoids with selective activities at individual RARs and RXRs. For example, the diaryl- acetylenic retinoids allow separation of transactivation and AP1 antagonism functions at RAR (Nagpal et al, 1995). Recently, compounds that are selective for particular RAR sub-types have been synthesized: these include both agonists and antagonists (Chandraratna, 1995; Teng et al, 1999; Johnson et al, 1999). The functional selectivity of these compounds may open the way to achieving differentiation or apoptosis of tumour cells with minimal systemic side effects (Chandraratna, 1995). Cell lines that are commonly used in the evaluation of investiga- tional agents for prostate cancer include LNCaP, DU-145 and PC- 3. […] These lines are relatively insensitive to growth inhibition and induction of apoptosis by ATRA and by synthetic agonists. […] Fenretinide (4HPR) induces apoptosis of LNCaP and of PC-3 cells at 1-5 M and 25 µM, respectively (Pienta et al, 1993; Heish and Wu, 1997). Pfahl and colleagues examined the growth inhibitory effects of a panel of receptor-selective retinoids against DU145 and PC-3 cells and achieved complete growth inhibition and induction of apoptosis between 1 M and 10 M (Lu et al, 1999). […] Antagonists of retinoic acid receptors (RARs) are potent growth inhibitors of prostate carcinoma cells LA Hammond1 , CH Van Krinks2 , J Durham2 , SE Tomkins2 , RD Burnett3 , EL Jones1 , RAS Chandraratna3 and G Brown2 Divisions of 1 Cancer Studies and of 2 Immunity and Infection, University of Birmingham Medical School, Edgbaston, Birmingham B15 2TT, UK and 3 Retinoid Research, Allergan Inc., Irvine, California, USA Summary Novel synthetic antagonists of retinoic acid receptors (RARs) have been developed. To avoid interference by serum retinoids when testing these compounds, we established serum-free grown sub-lines (>3 years) of the prostate carcinoma lines LNCaP, PC3 and DU145. […] A component(s) of serum and of LNCaP-conditioned medium diminishes the activity of antagonists: this factor is not the most likely candidates IGF-1 and EGF. In vitro studies of RAR antagonists together with data from RAR-null mice lead to the hypothesis that RAR-regulated gene transcription is necessary for the survival and maintenance of prostate epithelium. […]

PC3 ITS+ cells = assay: Plate colony formation assay, serum-free (ITS+)-grown PC3; assay type: cell-based, human; conditions: 14 days
Description: (§2) Prostate cancer is one of the most common cancers in European and American males and has a high mortality rate (Landis et al, 1998; Rosenthal, 1998). Early disease is managed conservatively in Europe although in selected patients surgery is curative. In advanced disease, androgen ablation can produce symptomatic improvement, but the tumour often re-emerges in an androgen- independent and incurable form. One proposed treatment for androgen-independent prostate carcinoma is differentiation ther- apy, in which agents such as all-trans-retinoic acid (ATRA), 9-cis- retinoic acid and 1, 25-dihydroxyvitamin D3 (D3 ) are used to induce growth arrest, differentiation and sometimes apoptosis of the tumour cells (Liang et al, 1999; de Vos et al, 1997; Skowronski et al, 1994; Hedlund et al, 1997). ATRA and synthetic analogues exert their biological effects by binding to two families of retinoid receptors, the RARs (RAR, RAR and RAR) and the RXRs (RXR, RXR and RXR). These are ligand-dependent transcription factors of the steroid/thyroid hormone nuclear receptor superfamily (Chambon 1994; Boehm et al, 1995). Activated RARs bind to retinoic acid-responsive elements (RAREs) in the promoters of genes and thus regulate gene expression. They also antagonize the activity of the tran- scription factor AP1 and thereby down-regulate the expression of some AP1-activated genes (Nagpal et al, 1995). One approach to unravelling the contributions of RAR sub-types to these actions has been the development of synthetic retinoids with selective activities at individual RARs and RXRs. For example, the diaryl- acetylenic retinoids allow separation of transactivation and AP1 antagonism functions at RAR (Nagpal et al, 1995). Recently, compounds that are selective for particular RAR sub-types have been synthesized: these include both agonists and antagonists (Chandraratna, 1995; Teng et al, 1999; Johnson et al, 1999). The functional selectivity of these compounds may open the way to achieving differentiation or apoptosis of tumour cells with minimal systemic side effects (Chandraratna, 1995). […]

DU145 ITS+ cells = assay: Plate colony formation assay, serum-free (ITS+)-grown DU145; assay type: cell-based, human; conditions: 14 days
Description: as §2

[1] = tested on: LNCaP, PC3 and DU145 cells; assay: Plate colony formation assay, stated over the three serum-free grown lines; assay type: cell-based, human; conditions: for IC50: stated over all three serum-free grown lines, read-out: concentration inhibiting colony formation by 50% (IC50)
Description: as §1

RARα = target: T1, RARα (Homo sapiens, UniProt P10276); assay: Binding to baculovirus-expressed RARα; design: made in house; conditions: baculovirus-expressed receptor
T1 sequence (P10276 1-462): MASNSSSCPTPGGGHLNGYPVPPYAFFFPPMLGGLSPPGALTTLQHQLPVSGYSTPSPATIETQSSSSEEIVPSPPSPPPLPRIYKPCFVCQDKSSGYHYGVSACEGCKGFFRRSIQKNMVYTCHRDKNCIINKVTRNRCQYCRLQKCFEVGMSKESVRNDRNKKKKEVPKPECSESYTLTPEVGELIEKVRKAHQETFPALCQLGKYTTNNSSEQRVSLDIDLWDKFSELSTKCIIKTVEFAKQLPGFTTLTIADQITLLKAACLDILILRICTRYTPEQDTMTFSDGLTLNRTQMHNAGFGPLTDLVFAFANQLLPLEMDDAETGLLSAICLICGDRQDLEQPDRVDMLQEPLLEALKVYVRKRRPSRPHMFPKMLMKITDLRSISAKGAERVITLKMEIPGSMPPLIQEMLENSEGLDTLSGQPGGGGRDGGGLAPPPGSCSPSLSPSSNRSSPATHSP
Description: as §1

RARβ = target: T2, RARβ (Homo sapiens, UniProt P10826); assay: Binding to baculovirus-expressed RARβ; design: made in house; conditions: baculovirus-expressed receptor
T2 sequence (P10826 1-455): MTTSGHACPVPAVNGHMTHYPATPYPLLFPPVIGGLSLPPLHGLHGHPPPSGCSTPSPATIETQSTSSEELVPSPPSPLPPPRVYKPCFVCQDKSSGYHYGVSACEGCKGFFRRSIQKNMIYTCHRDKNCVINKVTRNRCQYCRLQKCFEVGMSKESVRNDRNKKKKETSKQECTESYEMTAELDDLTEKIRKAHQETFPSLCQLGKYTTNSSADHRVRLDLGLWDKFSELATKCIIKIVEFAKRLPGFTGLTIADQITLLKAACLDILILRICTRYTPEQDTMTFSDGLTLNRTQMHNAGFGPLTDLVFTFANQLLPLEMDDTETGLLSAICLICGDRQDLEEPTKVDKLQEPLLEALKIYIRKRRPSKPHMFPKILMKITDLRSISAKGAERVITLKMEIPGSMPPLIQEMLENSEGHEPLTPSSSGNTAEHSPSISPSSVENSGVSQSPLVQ
Description: as §1

RARγ = target: T3, RARγ (Homo sapiens, UniProt P13631); assay: Binding to baculovirus-expressed RARγ; design: made in house; conditions: baculovirus-expressed receptor
T3 sequence (P13631 1-454): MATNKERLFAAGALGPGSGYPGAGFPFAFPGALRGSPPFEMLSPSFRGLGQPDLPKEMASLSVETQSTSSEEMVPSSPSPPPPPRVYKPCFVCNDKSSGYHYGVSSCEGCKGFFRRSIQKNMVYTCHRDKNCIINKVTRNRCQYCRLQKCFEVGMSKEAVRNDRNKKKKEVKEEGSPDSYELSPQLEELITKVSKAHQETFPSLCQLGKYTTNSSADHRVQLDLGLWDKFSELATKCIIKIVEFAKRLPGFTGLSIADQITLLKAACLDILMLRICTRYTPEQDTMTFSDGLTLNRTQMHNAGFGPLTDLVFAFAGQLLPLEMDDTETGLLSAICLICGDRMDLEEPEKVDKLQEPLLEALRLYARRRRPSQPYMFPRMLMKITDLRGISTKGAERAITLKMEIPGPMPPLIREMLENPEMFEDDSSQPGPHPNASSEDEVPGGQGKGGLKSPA
Description: as §1

FBS-grown DU145 cells = assay: Plate colony formation assay, FBS-grown DU145; assay type: cell-based, human; design: dose or concentration left out as unconfirmed; conditions: ATRA
Description: as §2, with “1995).” for “1995). One approach to unravelling the contributions of RAR sub-types to these actions has been the development of synthetic retinoids with selective activities at individual RARs and RXRs. For example, the diaryl- acetylenic retinoids allow separation of transactivation and AP1 antagonism functions at RAR (Nagpal et al, 1995). Recently, compounds that are selective for particular RAR sub-types have been synthesized: these include both agonists and antagonists (Chandraratna, 1995; Teng et al, 1999; Johnson et al, 1999). The functional selectivity of these compounds may open the way to achieving differentiation or apoptosis of tumour cells with minimal systemic side effects (Chandraratna, 1995).”

PC-3 and DU-145 cells = tested on: PC-3 and DU-145 cells; design: method as in Lu et al, 1997 and 1999; dose or concentration left out as unconfirmed; conditions: ref Lu et al, 1997 and 1999; cited from earlier work
breast carcinoma lines = tested on: breast carcinoma lines; design: method as in Fanjul et al, 1998; conditions: low serum (0.5%); ref Fanjul et al, 1998; cited from earlier work
[2] = tested on: FBS-grown LNCaP, DU145 and PC3 cells; assay: Plate colony formation assay, stated over the three FBS-grown lines; assay type: cell-based, human; conditions: 100 nM
Description: as §2, with “1995).” for “1995). One approach to unravelling the contributions of RAR sub-types to these actions has been the development of synthetic retinoids with selective activities at individual RARs and RXRs. For example, the diaryl- acetylenic retinoids allow separation of transactivation and AP1 antagonism functions at RAR (Nagpal et al, 1995). Recently, compounds that are selective for particular RAR sub-types have been synthesized: these include both agonists and antagonists (Chandraratna, 1995; Teng et al, 1999; Johnson et al, 1999). The functional selectivity of these compounds may open the way to achieving differentiation or apoptosis of tumour cells with minimal systemic side effects (Chandraratna, 1995).”

HL60 cells [3] = assay: ATRA-induced differentiation of HL60 cells to neutrophils (nitroblue tetrazolium reduction); assay type: cell-based, human; conditions: antagonist at 100 nM added with 100 nM ATRA
Description: as §2, with “1995).” for “1995). One approach to unravelling the contributions of RAR sub-types to these actions has been the development of synthetic retinoids with selective activities at individual RARs and RXRs. For example, the diaryl- acetylenic retinoids allow separation of transactivation and AP1 antagonism functions at RAR (Nagpal et al, 1995). Recently, compounds that are selective for particular RAR sub-types have been synthesized: these include both agonists and antagonists (Chandraratna, 1995; Teng et al, 1999; Johnson et al, 1999). The functional selectivity of these compounds may open the way to achieving differentiation or apoptosis of tumour cells with minimal systemic side effects (Chandraratna, 1995).”

HL60 cells [4] = assay: Clonal growth of single serum-free grown HL60 cells in microtitre wells; assay type: cell-based, human; conditions: 100 nM
Description: as §1

Structure (SMILES) | IC50 (LNCaP ITS+ cells) [nM] | IC50 (PC3 ITS+ cells) [nM] | IC50 (DU145 ITS+ cells) [nM] | IC50 [1] [nM] | Kd (RARα) [nM] | Kd (RARβ) [nM] | Kd (RARγ) [nM] | other results
CC1=C(/C=C/C(C)=C/C=C/C(C)=C/C(=O)Nc2ccc(O)cc2)C(C)(C)CCC1 [Fenretinide] | – | – | – | – | – | – | – | concentration inducing apoptosis (LNCaP cells; ref Pienta et al, 1993, Heish and Wu, 1997): 1 to 5 µM; concentration inducing apoptosis (PC-3 cells): 25 µM
Cc1ccc(C2=CCC(C)(C)c3ccc(N=Nc4ccc(C(=O)O)cc4F)cc32)cc1 [AGN194431] | 99 | 104 | 88 | ~100 | 300 | 6 | 70 | –
CC1=C(/C=C/C(C)=C/C=C/C(C)=C/C(=O)O)C(C)(C)CCC1 [ATRA, all-trans retinoic acid] | – | – | – | – | – | – | – | effect on colony formation ([1]; 100 nM, three cell lines, ITS+ and FBS cells): little effect; reduction in colony formation (FBS-grown DU145 cells): < 1%; concentration inducing apoptosis (LNCaP cells; ref Gao et al, 1999): 2 µM; growth inhibition and apoptosis (PC-3 and DU-145 cells): neither inhibits the growth nor induces apoptosis
COCCOCOc1ccc(C(=O)/C=C/c2ccc(C(=O)O)cc2)cc1C12CC3CC(CC(C3)C1)C2 [MX781] | – | – | – | – | – | – | – | concentration abolishing cell proliferation (breast carcinoma lines): > 1 µM
Cc1ccc(C2=CC(C)(C)Oc3c(Br)cc(C(=O)Nc4ccc(C(=O)O)c(F)c4)cc32)cc1 [AGN194301] | 203 | 235 | 201 | ~200 | 3 | 320 | 7250 | inhibition of colony formation ([1]; 100 nM, three lines in ITS+ medium): 42-74%; inhibition of colony formation [2]: 0-19%; percentage of mature cells (HL60 cells [3]): 1%; viability of the single cells (HL60 cells [4]): > 95%; effect on clonal growth of HL60 cells (HL60 cells [4]; 4 days): did not adversely affect; number of viable cells at day 4 (HL60 cells [4]; control 18): 22; cloning efficiency (HL60 cells [4]; same as untreated): 90-93%
